Experimental data published in patent publication US11987568B2, “Allosteric inhibitor of WEE1 kinase” (H. LEE MOFFITT CANCER CENTER AND RESEARCH INSTITUTE, INC., priority 2018, dated 2024).
“And” between values parts separate entries of the source, which are not always exact repeats. Identical values can stand only once.

Columns and labels:
LAPC4 cells = experiment: LAPC4 cell proliferation, trypan blue exclusion assay; assay type: cell-based; conditions: Homo sapiens, 96 hr, viable cells by trypan blue exclusion
Source text: FIGS. 2A-2B show identification of 3 distinct types of inhibitors. […] In addition, the lysates were also subjected to by immunoblotting with […]-Cdc2 or actin antibodies (middle and bottom panels). […] The number vehicle treated cells were used as control and percent of surviving cells were plotted. […] The number of vehicle treated cells were used as control and percent of surviving cells were plotted. […] The number vehicle treated cells were used as control and percent of surviving cells were plotted. 7 of these epigenetic inhibitors in various assays such as cell proliferation assay, an in vitro kinase assay were performed and WEE1 autophosphorylation in vivo was determined. Prostate cancer derived LAPC4 cells were treated with inhibitors and its effect on cell proliferation was examined.

[1] = system: Cdc2 Tyr15-phosphorylation (pY15-Cdc2); experiment: WEE1 cell cycle inhibitory activity in cells: pY15-Cdc2 immunoblot; assay type: cell-based, human; conditions: LNCaP cells, 3 uM, 48 hours (FIG. 2A)
Source text: FIGS. 2A-2B show identification of 3 distinct types of inhibitors. […] In addition, the lysates were also subjected to by immunoblotting with […]-Cdc2 or actin antibodies (middle and bottom panels). […] The number vehicle treated cells were used as control and percent of surviving cells were plotted. […] In addition, the lysates were also subjected to immunoblotting with actin antibodies (bottom panel). Identification of compounds with WEE1 epigenetic inhibitory role: 14 'hits' that were identified in the screen are shown in FIG. 1. These compounds were further tested for their ability to inhibit WEE1 epigenetic activity. Prostate cancer derived LNCaP cells were treated with 3 uM of compounds for 48 hours. […] Lysates were also assessed for WEE1 cell cycle inhibitory activity by determining Cdc2 Tyr15-phosphorylation ([…]-Cdc2). […] These are named as 'Cell Cycle' inhibitors. […] These compounds are the 'Epigenetic' inhibitors.

5hmC levels = experiment: 5-hmC slot blot of genomic DNA; assay type: cell-based; conditions: 10 uM, 16 hr
Experimental: WM66 cells (FIG. 5A) or primary melanocytes (FIG. 5B) were treated with vehicle or compounds (10 uM) for 16 hr. Total RNA was isolated followed by qRT-PCR with IDH2 and actin primers. FIG. 5C indicated cells were treated with vehicle or compounds (10 uM) for 16 hr. Total genomic DNA was isolated, slot-blotted onto a nitrocellulose membrane, followed by blotting with 5-hmC antibodies (top panels). Blots were also stained with methylene blue, to determine equal loading of DNA (bottom panel).
Identification of 55152 (18-B3) scaffold as a WEE1 epigenetic inhibitor: Two major hits, 367416 (16-G9) and 55152 (18-B3) were taken up for further characterization. […] Accordingly, melanoma cell line WM66 and primary melanocytes were treated with inhibitors and IDH2 mRNA levels were measure by real time PCR.

[2] = Microsome Stability, Human; assay type: in vitro ADME
Experimental: (§1) ADME studies with 55152 (18-B3) and 367416 (16-G9): The solubility, microsome stability and plasma stability of these two compounds were also determined (Table 2).

[3] = Microsome Stability, Mouse; assay type: in vitro ADME
Experimental: as §1

Wee1 KD = target: T1, Wee1 KD (Homo sapiens, UniProt P30291); experiment: Differential Scanning Fluorimetry (DSF), Wee1 KD; assay type: binding; conditions: kinase domain purified from HEK293T cells
T1 construct: WEE1 & WEE2 (as control) kinase domains from mammalian cells (HEK293T cells) were purified
T1 sequence (P30291 299-569): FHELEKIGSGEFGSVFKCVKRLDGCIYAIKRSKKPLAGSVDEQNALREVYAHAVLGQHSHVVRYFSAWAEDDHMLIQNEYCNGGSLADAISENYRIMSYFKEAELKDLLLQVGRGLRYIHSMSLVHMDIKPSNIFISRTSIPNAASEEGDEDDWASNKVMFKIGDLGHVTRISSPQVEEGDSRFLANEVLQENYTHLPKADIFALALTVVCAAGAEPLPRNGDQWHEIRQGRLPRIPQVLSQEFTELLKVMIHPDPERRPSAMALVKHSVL
Experimental: Binding study of WEE1 epigenetic inhibitors: To identify the precise binding region/domain of WEE1 epigenetic inhibitors, WEE1 & WEE2 (as control) kinase domains from mammalian cells (HEK293T cells) were purified. The binding of inhibitors was assessed using Differential Scanning Fluorimetry (DSF).

[4] = target: full length human WEE1 kinase (Homo sapiens, UniProt P30291); experiment: ELISA based assay: WEE1 phosphorylation of biotinylated H2B peptide spanning Tyr37; assay type: biochemical; parameters: A full length human WEE1 kinase that was enzymatically active was purified from insect cell; conditions: Table 1; several values in a cell are repeat determinations
full length human WEE1 kinase, sequence (P30291 whole entry): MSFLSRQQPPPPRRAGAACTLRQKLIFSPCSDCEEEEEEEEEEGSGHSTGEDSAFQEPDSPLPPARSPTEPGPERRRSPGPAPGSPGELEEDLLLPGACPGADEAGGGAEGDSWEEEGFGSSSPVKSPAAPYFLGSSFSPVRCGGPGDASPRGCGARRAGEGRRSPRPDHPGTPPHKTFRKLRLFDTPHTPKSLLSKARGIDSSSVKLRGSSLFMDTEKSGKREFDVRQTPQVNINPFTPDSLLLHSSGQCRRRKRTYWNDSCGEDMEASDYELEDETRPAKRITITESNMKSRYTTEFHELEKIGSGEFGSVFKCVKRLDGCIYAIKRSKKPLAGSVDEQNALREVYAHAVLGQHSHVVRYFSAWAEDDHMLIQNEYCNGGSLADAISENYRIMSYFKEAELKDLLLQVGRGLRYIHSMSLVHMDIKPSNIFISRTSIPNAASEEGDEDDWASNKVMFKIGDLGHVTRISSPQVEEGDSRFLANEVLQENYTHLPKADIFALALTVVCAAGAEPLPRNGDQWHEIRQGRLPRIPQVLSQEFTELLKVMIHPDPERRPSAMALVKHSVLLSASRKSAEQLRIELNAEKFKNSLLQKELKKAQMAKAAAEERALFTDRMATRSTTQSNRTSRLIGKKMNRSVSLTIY
Source text: Designing of a Novel inhibitor Screening Platform: […] A full length human WEE1 kinase that was enzymatically active was purified from insect cell. […] NCI diversity set compound library ( 1600 compounds) was used for the screening.

## Nc1ccc(NC(=O)c2ccc(C(=O)Nc3ccc(N)cc3)cc2)cc1 [SG5-061, N^1,N^4-bis(4-aminophenyl)terephthalamide]
LAPC4 cells
  IC50: 1000 nM
[1]
  Cdc2 Tyr15-phosphorylation (pY15-Cdc2): did not affect Cdc2 Tyr15-phosphotylation
5hmC levels
  5hmC levels: Corresponding increase in 5hmC levels
[2]
  Microsome Stability % remaining @ 1 hr Human: 64.56%
[3]
  Microsome Stability % remaining @ 1 hr Mouse: 95.21%
Wee1 KD
  ΔTm for Wee1 KD (° C.): 0.5 °C
Wee1 KD; listed as 55152 (18-B3)
  ΔTm for Wee1 KD (° C.): 0.8 °C
[4]
  ELISA Inhibition (%): 112% and 81% and 82% and 87% and 83% and 100% and 106%
